Peptide text beside a SMILES is read from it. * marks the point of attachment. Dansyl = CN(C)c1cccc2c(S(=O)(=O)*)cccc12
system: receptor labeled by the radioiodinated analogue of 1 (4, [125I]-YLFQPQRF-NH2); neuropeptide FF receptor; test: Competitive radioligand binding against 4 ([125I]Y8F-amide); conditions: mixture-based positional scanning; difference from averaged radioligand displacement of whole library (0); about 80 a.u. = 10-fold change in Ki

Row | Compound | Relative Binding Index (RBI) [a.u.]
1 | CN(C)c1cccc2c(S(=O)(=O)N[C@@H](CO)C(=O)N3CCC[C@H]3C(=O)N[C@@H](CCCNC(=N)N)C(N)=O)cccc12 [Dansyl-SPR-amide] (Dansyl-Ser-Pro-Arg-NH2) | 20
2 | CN(C)c1cccc2c(S(=O)(=O)N[C@@H](CO)C(=O)N[C@@H](Cc3c[nH]c4ccccc34)C(=O)N[C@@H](CCCNC(=N)N)C(N)=O)cccc12 [Dansyl-SWR-amide] (Dansyl-Ser-Trp-Arg-NH2) | 25
3 | C[C@H](NC(=O)[C@@H](NS(=O)(=O)c1cccc2c(N(C)C)cccc12)[C@@H](C)O)C(=O)N[C@@H](CCCNC(=N)N)C(N)=O [Dansyl-TAR-amide] (Dansyl-Thr-Ala-Arg-NH2) | −58
4 | C[C@@H](O)[C@H](NS(=O)(=O)c1cccc2c(N(C)C)cccc12)C(=O)N[C@@H](CC(=O)O)C(=O)N[C@@H](CCCNC(=N)N)C(N)=O [Dansyl-TDR-amide] (Dansyl-Thr-Asp-Arg-NH2) | −27
5 | C[C@@H](O)[C@H](NS(=O)(=O)c1cccc2c(N(C)C)cccc12)C(=O)N[C@@H](CCC(=O)O)C(=O)N[C@@H](CCCNC(=N)N)C(N)=O [Dansyl-TER-amide] (Dansyl-Thr-Glu-Arg-NH2) | −8
6 | CC(O)C(NS(=O)(=O)c1cccc2c(N(C)C)cccc12)C(=O)NC(Cc1ccccc1)C(=O)NC(CCCNC(=N)N)C(N)=O (stereo not drawn) [Dansyl-TFR-amide] (Dansyl-Thr-Phe-Arg-NH2; configuration not given here) | −10
7 | C[C@@H](O)[C@H](NS(=O)(=O)c1cccc2c(N(C)C)cccc12)C(=O)NCC(=O)N[C@@H](CCCNC(=N)N)C(N)=O [Dansyl-TGR-amide] (Dansyl-Thr-Gly-Arg-NH2) | −3
8 | C[C@@H](O)[C@H](NS(=O)(=O)c1cccc2c(N(C)C)cccc12)C(=O)N[C@@H](Cc1c[nH]cn1)C(=O)N[C@@H](CCCNC(=N)N)C(N)=O [Dansyl-THR-amide] (Dansyl-Thr-His-Arg-NH2) | −14
9 | CC[C@H](C)[C@H](NC(=O)[C@@H](NS(=O)(=O)c1cccc2c(N(C)C)cccc12)[C@@H](C)O)C(=O)N[C@@H](CCCNC(=N)N)C(N)=O [Dansyl-TIR-amide] (Dansyl-Thr-Ile-Arg-NH2) | −2
10 | CC(C)C[C@H](NC(=O)[C@@H](NS(=O)(=O)c1cccc2c(N(C)C)cccc12)[C@@H](C)O)C(=O)N[C@@H](CCCNC(=N)N)C(N)=O [Dansyl-TLR-amide] (Dansyl-Thr-Leu-Arg-NH2) | −17
11 | CSCC[C@H](NC(=O)[C@@H](NS(=O)(=O)c1cccc2c(N(C)C)cccc12)[C@@H](C)O)C(=O)N[C@@H](CCCNC(=N)N)C(N)=O [Dansyl-TMR-amide] (Dansyl-Thr-Met-Arg-NH2) | −9
12 | C[C@@H](O)[C@H](NS(=O)(=O)c1cccc2c(N(C)C)cccc12)C(=O)N[C@@H](CC(N)=O)C(=O)N[C@@H](CCCNC(=N)N)C(N)=O [Dansyl-TNR-amide] (Dansyl-Thr-Asn-Arg-NH2) | −7
13 | C[C@@H](O)[C@H](NS(=O)(=O)c1cccc2c(N(C)C)cccc12)C(=O)N1CCC[C@H]1C(=O)N[C@@H](CCCNC(=N)N)C(N)=O [Dansyl-TPR-amide] (Dansyl-Thr-Pro-Arg-NH2) | −5
14 | C[C@@H](O)[C@H](NC(=O)[C@@H](NS(=O)(=O)c1cccc2c(N(C)C)cccc12)[C@@H](C)O)C(=O)N[C@@H](CCCNC(=N)N)C(N)=O [Dansyl-TTR-amide] (Dansyl-Thr-Thr-Arg-NH2) | −3
15 | CC(C)[C@H](NC(=O)[C@@H](NS(=O)(=O)c1cccc2c(N(C)C)cccc12)[C@@H](C)O)C(=O)N[C@@H](CCCNC(=N)N)C(N)=O [Dansyl-TVR-amide] (Dansyl-Thr-Val-Arg-NH2) | −13
16 | C[C@@H](O)[C@H](NS(=O)(=O)c1cccc2c(N(C)C)cccc12)C(=O)N[C@@H](Cc1c[nH]c2ccccc12)C(=O)N[C@@H](CCCNC(=N)N)C(N)=O [Dansyl-TWR-amide] (Dansyl-Thr-Trp-Arg-NH2) | 0
17 | C[C@@H](O)[C@H](NS(=O)(=O)c1cccc2c(N(C)C)cccc12)C(=O)N[C@@H](Cc1ccc(O)cc1)C(=O)N[C@@H](CCCNC(=N)N)C(N)=O [Dansyl-TYR-amide] (Dansyl-Thr-Tyr-Arg-NH2) | −10
18 | CC(C)[C@H](NS(=O)(=O)c1cccc2c(N(C)C)cccc12)C(=O)N[C@@H](C)C(=O)N[C@@H](CCCNC(=N)N)C(N)=O [Dansyl-VAR-amide] (Dansyl-Val-Ala-Arg-NH2) | −53

More lines, now with the values ahead:

Row | Relative Binding Index (RBI) [a.u.] | Compound
19 | 6 | CN(C)c1cccc2c(S(=O)(=O)N[C@@H](CCCNC(=N)N)C(=O)N[C@@H](Cc3ccc(O)cc3)C(=O)N[C@@H](CCCNC(=N)N)C(N)=O)cccc12 [Dansyl-RYR-amide] (Dansyl-Arg-Tyr-Arg-NH2)
20 | −33 | C[C@H](NC(=O)[C@H](CO)NS(=O)(=O)c1cccc2c(N(C)C)cccc12)C(=O)N[C@@H](CCCNC(=N)N)C(N)=O [Dansyl-SAR-amide] (Dansyl-Ser-Ala-Arg-NH2)
21 | −2 | CN(C)c1cccc2c(S(=O)(=O)N[C@@H](CO)C(=O)N[C@@H](CC(=O)O)C(=O)N[C@@H](CCCNC(=N)N)C(N)=O)cccc12 [Dansyl-SDR-amide] (Dansyl-Ser-Asp-Arg-NH2)
22 | 16 | CN(C)c1cccc2c(S(=O)(=O)N[C@@H](CO)C(=O)N[C@@H](CCC(=O)O)C(=O)N[C@@H](CCCNC(=N)N)C(N)=O)cccc12 [Dansyl-SER-amide] (Dansyl-Ser-Glu-Arg-NH2)
23 | 15 | CN(C)c1cccc2c(S(=O)(=O)N[C@@H](CO)C(=O)N[C@@H](Cc3ccccc3)C(=O)N[C@@H](CCCNC(=N)N)C(N)=O)cccc12 [Dansyl-SFR-amide] (Dansyl-Ser-Phe-Arg-NH2)
24 | 22 | CN(C)c1cccc2c(S(=O)(=O)N[C@@H](CO)C(=O)NCC(=O)N[C@@H](CCCNC(=N)N)C(N)=O)cccc12 [Dansyl-SGR-amide] (Dansyl-Ser-Gly-Arg-NH2)
25 | 11 | CN(C)c1cccc2c(S(=O)(=O)N[C@@H](CO)C(=O)N[C@@H](Cc3c[nH]cn3)C(=O)N[C@@H](CCCNC(=N)N)C(N)=O)cccc12 [Dansyl-SHR-amide] (Dansyl-Ser-His-Arg-NH2)
26 | 23 | CC[C@H](C)[C@H](NC(=O)[C@H](CO)NS(=O)(=O)c1cccc2c(N(C)C)cccc12)C(=O)N[C@@H](CCCNC(=N)N)C(N)=O [Dansyl-SIR-amide] (Dansyl-Ser-Ile-Arg-NH2)
27 | 14 | CN(C)c1cccc2c(S(=O)(=O)N[C@@H](CO)C(=O)N[C@@H](CCCCN)C(=O)N[C@@H](CCCNC(=N)N)C(N)=O)cccc12 [Dansyl-SKR-amide] (Dansyl-Ser-Lys-Arg-NH2)
28 | 8 | CC(C)C[C@H](NC(=O)[C@H](CO)NS(=O)(=O)c1cccc2c(N(C)C)cccc12)C(=O)N[C@@H](CCCNC(=N)N)C(N)=O [Dansyl-SLR-amide] (Dansyl-Ser-Leu-Arg-NH2)
29 | 16 | CSCC[C@H](NC(=O)[C@H](CO)NS(=O)(=O)c1cccc2c(N(C)C)cccc12)C(=O)N[C@@H](CCCNC(=N)N)C(N)=O [Dansyl-SMR-amide] (Dansyl-Ser-Met-Arg-NH2)
30 | 18 | CN(C)c1cccc2c(S(=O)(=O)N[C@@H](CO)C(=O)N[C@@H](CC(N)=O)C(=O)N[C@@H](CCCNC(=N)N)C(N)=O)cccc12 [Dansyl-SNR-amide] (Dansyl-Ser-Asn-Arg-NH2)
31 | 30 | CN(C)c1cccc2c(S(=O)(=O)N[C@@H](CO)C(=O)N[C@@H](CCC(N)=O)C(=O)N[C@@H](CCCNC(=N)N)C(N)=O)cccc12 [Dansyl-SQR-amide] (Dansyl-Ser-Gln-Arg-NH2)
32 | 15 | CN(C)c1cccc2c(S(=O)(=O)N[C@@H](CO)C(=O)N[C@@H](CCCNC(=N)N)C(=O)N[C@@H](CCCNC(=N)N)C(N)=O)cccc12 [Dansyl-SRR-amide] (Dansyl-Ser-Arg-Arg-NH2)
33 | 37 | CN(C)c1cccc2c(S(=O)(=O)N[C@@H](CO)C(=O)N[C@@H](CO)C(=O)N[C@@H](CCCNC(=N)N)C(N)=O)cccc12 [Dansyl-SSR-amide] (Dansyl-Ser-Ser-Arg-NH2)
34 | 22 | C[C@@H](O)[C@H](NC(=O)[C@H](CO)NS(=O)(=O)c1cccc2c(N(C)C)cccc12)C(=O)N[C@@H](CCCNC(=N)N)C(N)=O [Dansyl-STR-amide] (Dansyl-Ser-Thr-Arg-NH2)
35 | 12 | CC(C)[C@H](NC(=O)[C@H](CO)NS(=O)(=O)c1cccc2c(N(C)C)cccc12)C(=O)N[C@@H](CCCNC(=N)N)C(N)=O [Dansyl-SVR-amide] (Dansyl-Ser-Val-Arg-NH2)
36 | 15 | CN(C)c1cccc2c(S(=O)(=O)N[C@@H](CO)C(=O)N[C@@H](Cc3ccc(O)cc3)C(=O)N[C@@H](CCCNC(=N)N)C(N)=O)cccc12 [Dansyl-SYR-amide] (Dansyl-Ser-Tyr-Arg-NH2)
37 | −11 | C[C@@H](O)[C@H](NS(=O)(=O)c1cccc2c(N(C)C)cccc12)C(=O)N[C@@H](CCCCN)C(=O)N[C@@H](CCCNC(=N)N)C(N)=O [Dansyl-TKR-amide] (Dansyl-Thr-Lys-Arg-NH2)
38 | 5 | C[C@@H](O)[C@H](NS(=O)(=O)c1cccc2c(N(C)C)cccc12)C(=O)N[C@@H](CCC(N)=O)C(=O)N[C@@H](CCCNC(=N)N)C(N)=O [Dansyl-TQR-amide] (Dansyl-Thr-Gln-Arg-NH2)
39 | −10 | C[C@@H](O)[C@H](NS(=O)(=O)c1cccc2c(N(C)C)cccc12)C(=O)N[C@@H](CCCNC(=N)N)C(=O)N[C@@H](CCCNC(=N)N)C(N)=O [Dansyl-TRR-amide] (Dansyl-Thr-Arg-Arg-NH2)
40 | 12 | C[C@@H](O)[C@H](NS(=O)(=O)c1cccc2c(N(C)C)cccc12)C(=O)N[C@@H](CO)C(=O)N[C@@H](CCCNC(=N)N)C(N)=O [Dansyl-TSR-amide] (Dansyl-Thr-Ser-Arg-NH2)
